pIC50: −log10 of the molar value.
biological target: T1, EBP (Homo sapiens, UniProt Q15125); assay: EBP Functional Assay (EBP immunoaffinity LC-MS assay); format: biochemical; conditions: EBP enzyme from HEK293T cells; 30 min with inhibitor, then zymosterol-d5 at 37° C. for 4 h; percent conversion by LC-APCI MRM MS
T1 construct: HEK293T cells were utilized as the source of EBP enzyme; endogenous in cells; host or cells: HEK293T
Procedure: The EBP immunoaffinity (IA) LC-MS assay measures the potency of small molecule inhibitors of EBP by quantifying their concentration-dependent changes in the enzyme's substrate and product using liquid chromatography atmospheric pressure chemical ionization multiple reaction monitoring mass spectrometry (LC-APCI MRM MS). HEK293T cells were utilized as the source of EBP enzyme. The enzyme was incubated with the small molecule inhibitors at variable concentrations for 30 min. Deuterated form of EBP substrate, zymosterol-d5 (Avanti Polar Lipids, Cat #700068P-1 mg), was then added and the plate was incubated at 37° C. for 4 h. Finally, the sterol isomers were extracted and injected to LC-APCI MRM MS. MRM transition used for the quantification for both zymosterol and […] (substrate and product of EBP enzymatic reaction, respectively) is 372.3-203.2, CE 30 and DP 80 in positive ion mode. Percent conversion of the zymosterol-d5 to dehydrolathosterol-d5 was used to derive IC50 curves. Tasin-1 (1′-[(4-Methoxyphenyl)sulfonyl]-4-methyl-1,4′-bipiperidine, CAS 792927-06-1) was used as the reference small molecule inhibitor.
Percent conversion versus the compound concentration data were fit to the following 4-parameter logistic model to generate IC50 curves: […]

T1 sequence (Q15125 whole entry): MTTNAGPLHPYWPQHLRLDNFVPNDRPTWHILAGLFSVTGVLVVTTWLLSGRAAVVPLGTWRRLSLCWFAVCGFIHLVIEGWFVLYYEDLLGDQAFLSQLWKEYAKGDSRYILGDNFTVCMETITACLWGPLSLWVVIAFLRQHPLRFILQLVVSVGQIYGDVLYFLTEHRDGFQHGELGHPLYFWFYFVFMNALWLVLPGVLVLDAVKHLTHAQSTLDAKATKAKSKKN

Structure (SMILES)	pIC50
Cc1nc(C(F)(F)F)ccc1S(=O)(=O)N1C[C@H]2CN(C3CC4(COC4)C3)C[C@@H]2C1 (racemic) [Example 50, Rac-(3aR,6aR)-2-((2-methyl-6-(trifluoromethyl)pyridin-3-yl)sulfonyl)-5-(2-oxaspiro[3.3]heptan-6-yl)octahydropyrrolo[3,4-c]pyrrole]	> 7.00
Cc1nc(C(F)(F)F)ccc1S(=O)(=O)N1C[C@H]2CN(CC3CCOCC3)C[C@@H]2C1 (racemic) [Example 51, Rac-(3aR,6aR)-2-((2-methyl-6-(trifluoromethyl)pyridin-3-yl)sulfonyl)-5-((tetrahydro-2H-pyran-4-yl)methyl)octahydropyrrolo[3,4-c]pyrrole]	> 7.00
Cc1nc(C(F)(F)F)ccc1S(=O)(=O)N1C[C@H]2CN(CC3COC3)C[C@@H]2C1 (racemic) [Example 52, Rac-(3aR,6aR)-2-((2-methyl-6-(trifluoromethyl)pyridin-3-yl)sulfonyl)-5-(oxetan-3-ylmethyl)octahydropyrrolo[3,4-c]pyrrole]	< 6.30
Cc1nc(C(F)(F)F)ccc1S(=O)(=O)N1C[C@H]2CN(CC34CCOC(C)(C3)C4)C[C@@H]2C1 (racemic) [Example 53, Rac-(3aR,6aR)-2-((1-methyl-2-oxabicyclo[3.1.1]heptan-5-yl)methyl)-5-((2-methyl-6-(trifluoromethyl)pyridin-3-yl)sulfonyl)octahydropyrrolo[3,4-c]pyrrole]	6.30 to 7.00
Cc1nc(C(F)(F)F)ccc1S(=O)(=O)N1C[C@H]2CN(CC34COC(C)(C3)C4)C[C@@H]2C1 (racemic) [Example 54]	6.30 to 7.00
Cc1nc(C(F)(F)F)ncc1S(=O)(=O)N1C[C@H]2CN(C3CCOCC3)C[C@@H]2C1 (racemic) [Example 57, Rac-(3aR,6aR)-2-((4-methyl-2-(trifluoromethyl)pyrimidin-5-yl)sulfonyl)-5-(tetrahydro-2H-pyran-4-yl)octahydropyrrolo[3,4-c]pyrrole]	6.30 to 7.00
Cc1nc(C(F)(F)F)ncc1S(=O)(=O)N1C[C@H]2CN(C3CC4(COC4)C3)C[C@@H]2C1 (racemic) [Example 58, Rac-(3aR,6aR)-2-((4-methyl-2-(trifluoromethyl)pyrimidin-5-yl)sulfonyl)-5-(2-oxaspiro[3.3]heptan-6-yl)octahydropyrrolo[3,4-c]pyrrole]	6.30 to 7.00
Cc1nc(C(F)(F)F)ncc1S(=O)(=O)N1C[C@H]2CN(CC3CCOCC3)C[C@@H]2C1 (racemic) [Example 59, Rac-(3aR,6aR)-2-((4-methyl-2-(trifluoromethyl)pyrimidin-5-yl)sulfonyl)-5-((tetrahydro-2H-pyran-4-yl)methyl)octahydropyrrolo[3,4-c]pyrrole]	6.30 to 7.00
Cc1nc(C(F)(F)F)ccc1S(=O)(=O)N1C[C@@H]2CN(C3CCOCC3)C[C@H]2C1 (single isomer, unassigned) [Example 47]	6.30 to 7.00
Cc1nc(C(F)(F)F)ccc1S(=O)(=O)N1C[C@H]2CN(C3CCOCC3)C[C@@H]2C1 (single isomer, unassigned) [Example 48]	6.30 to 7.00
Cc1nc(C(F)(F)F)ccc1S(=O)(=O)N1C[C@@H]2CN(CC34COC(C)(C3)C4)C[C@H]2C1 (single isomer, unassigned) [Example 55]	6.30 to 7.00
Cc1nc(C(F)(F)F)ccc1S(=O)(=O)N1C[C@H]2CN(CC34COC(C)(C3)C4)C[C@@H]2C1 (single isomer, unassigned) [Example 56]	6.30 to 7.00
Cc1ccc(S(=O)(=O)N2C[C@H]3C[C@@H](NCC4CCOCC4)C[C@H]3C2)c(C)c1 [Example 1, (3aR,5r,6aS)-2-((2,4-Dimethylphenyl)sulfonyl)-N-((tetrahydro-2H-pyran-4-yl)methyl)octahydrocyclopenta[c]pyrrol-5-amine]	> 7.00
O=S(=O)(c1ccc(OC(F)F)cc1)N1C[C@H]2C[C@@H](NCC3CCOCC3)C[C@H]2C1 [Example 2, (3aR,5r,6aS)-2-((4-(Difluoromethoxy)phenyl)sulfonyl)-N-((tetrahydro-2H-pyran-4-yl)methyl)octahydrocyclopenta[c]pyrrol-5-amine]	6.30 to 7.00
Cc1ccc(S(=O)(=O)N2C[C@H]3C[C@H](N4CCC(C)CC4)C[C@H]3C2)c(C)c1 [Example 3, (3aR,5s,6aS)-2-((2,4-Dimethylphenyl)sulfonyl)-5-(4-methylpiperidin-1-yl)octahydrocyclopenta[c]pyrrole]	> 7.00
CC1CCN([C@H]2C[C@@H]3CN(S(=O)(=O)c4ccc(OC(F)F)cc4)C[C@@H]3C2)CC1 [Example 4, (3aR,5s,6aS)-2-((4-(Difluoromethoxy)phenyl)sulfonyl)-5-(4-methylpiperidin-1-yl)octahydrocyclopenta[c]pyrrole]	6.30 to 7.00
Cc1ccc(S(=O)(=O)N2C[C@H]3C[C@@H](N4CCC(C)CC4)C[C@H]3C2)c(C)c1 [Example 5, (3aR,5r,6aS)-2-((2,4-Dimethylphenyl)sulfonyl)-5-(4-methylpiperidin-1-yl)octahydrocyclopenta[c]pyrrole]	> 7.00
CC1CCN([C@@H]2C[C@@H]3CN(S(=O)(=O)c4ccc(OC(F)F)cc4)C[C@@H]3C2)CC1 [Example 6, (3aR,5r,6aS)-2-((4-(Difluoromethoxy)phenyl)sulfonyl)-5-(4-methylpiperidin-1-yl)octahydrocyclopenta[c]pyrrole]	6.30 to 7.00
Cc1ccc(S(=O)(=O)N2C[C@H]3C[C@H](NCC4CCOCC4)C[C@H]3C2)c(C)c1 [Example 7, (3aR,5s,6aS)-2-((2,4-Dimethylphenyl)sulfonyl)-N-((tetrahydro-2H-pyran-4-yl)methyl)octahydrocyclopenta[c]pyrrol-5-amine]	> 7.00
O=S(=O)(c1ccc(OC(F)F)cc1)N1C[C@H]2C[C@H](NCC3CCOCC3)C[C@H]2C1 [Example 8, (3aR,5s,6aS)-2-((4-(Difluoromethoxy)phenyl)sulfonyl)-N-((tetrahydro-2H-pyran-4-yl)methyl)octahydrocyclopenta[c]pyrrol-5-amine]	6.30 to 7.00
COc1ncc(C)cc1S(=O)(=O)N1C[C@H]2C[C@H](NCC3CCOCC3)C[C@H]2C1 [Example 9, (3aR,5s,6aS)-2-((2-Methoxy-5-methylpyridin-3-yl)sulfonyl)-N-((tetrahydro-2H-pyran-4-yl)methyl)octahydrocyclopenta[c]pyrrol-5-amine]	6.30 to 7.00
Cc1cc(C)c(S(=O)(=O)N2C[C@H]3C[C@H](NCC4CCOCC4)C[C@H]3C2)cn1 [Example 10, (3aR,5s,6aS)-2-((4,6-Dimethylpyridin-3-yl)sulfonyl)-N-((tetrahydro-2H-pyran-4-yl)methyl)octahydrocyclopenta[c]pyrrol-5-amine]	< 6.30
Cn1nc(C2CC2)cc1S(=O)(=O)N1C[C@H]2C[C@H](NCC3CCOCC3)C[C@H]2C1 [Example 12, (3aR,5s,6aS)-2-((3-Cyclopropyl-1-methyl-1H-pyrazol-5-yl)sulfonyl)-N-((tetrahydro-2H-pyran-4-yl)methyl)octahydrocyclopenta[c]pyrrol-5-amine]	6.30 to 7.00
O=S(=O)(c1ccc(OC(F)F)cc1)N1C[C@H]2C[C@H](N3CCOCC3)C[C@H]2C1 [Example 13, 4-((3aR,5r,6aS)-2-((4-(Difluoromethoxy)phenyl)sulfonyl)octahydrocyclopenta[c]pyrrol-5-yl)morpholine]	< 6.30
